Consider 5 molecules from ChEMBL document CHEMBL3045719, “Insecticidal and Neuroblocking Activities toward American Cockroach (Periplaneta americana L.) of Imidacloprid Metabolites, 5-Hydroxy-, 4,5-Dihydroxy- and 4,5-Dehydroimidacloprid” (J Pestic Sci, 2004).

Data set [1] has as its system Periplaneta americana. The experiment in a line: Insecticidal activity against adult form of Periplaneta americana (American cockroach) assessed as concentration required for neuroblock in excised central nerve cord. Format: functional.
The subject of data set [2] is Periplaneta americana. The experiment in a line: Insecticidal activity against adult form of Periplaneta americana (American cockroach) assessed as paralysis at 250 nmol injected into abdominal region measured after 1 to 32 hr. Format: functional, organism-based.
The subject of data set [3] is Periplaneta americana. The experiment in a line: Insecticidal activity against adult form of Periplaneta americana (American cockroach) assessed as paralysis compound injected into abdominal region measured after 24 hr. Format: functional.
Data set [4] relates to Periplaneta americana. Description: Ratio of imidacloprid MLD to compound MLD for adult form of Periplaneta americana (American cockroach) assessed as paralysis compound injected into abdominal region measured after 24 hr. Format: functional.
Data set [5] has as its system Periplaneta americana. The experiment in a line: Insecticidal activity against adult form of Periplaneta americana (American cockroach) assessed as paralysis at 8.4 nmol injected into abdominal region measured after 8 hr. Format: functional, organism-based.
Data set [6] relates to Periplaneta americana. Description: Insecticidal activity against adult form of Periplaneta americana (American cockroach) assessed as paralysis at 8.4 nmol stored at 4 degC for 10 days injected into abdominal region measured after 1 hr. Format: functional, organism-based.
A short description of data set [7]: Lipophilicity, log P of the compound. Format: physicochemical. To be noted: octanol/water.
Data set [8] concerns Periplaneta americana. The experiment in a line: Insecticidal activity against adult form of Periplaneta americana (American cockroach) assessed as paralysis at 8.4 nmol injected into abdominal region measured after 13 hr. Format: functional, organism-based.
Data set [9] relates to Periplaneta americana. The experiment in a line: Insecticidal activity against adult form of Periplaneta americana (American cockroach) assessed as paralysis at 8.4 nmol injected into abdominal region measured after 2 hr. Format: functional, organism-based.
Data set [10] relates to Periplaneta americana. Description: Ratio of imidacloprid efficacy to compound efficacy adult form of Periplaneta americana (American cockroach) assessed as concentration required for neuroblock in excised central nerve cord. Format: functional.
Data set [11] has as its system Periplaneta americana. The experiment in a line: Insecticidal activity against adult form of Periplaneta americana (American cockroach) assessed as paralysis at 8.4 nmol injected into abdominal region measured after 3 hr. Format: functional, organism-based.
In data set [12] the test system is Periplaneta americana. The experiment in a line: Insecticidal activity against adult form of Periplaneta americana (American cockroach) assessed as paralysis at 8.4 nmol stored at 4 degC for 10 days injected into abdominal region measured after 2 hr. Format: functional, organism-based.
The subject of data set [13] is Periplaneta americana. The experiment in a line: Insecticidal activity against adult form of Periplaneta americana (American cockroach) assessed as paralysis at 8.4 nmol injected into abdominal region measured after 32 hr. Format: functional, organism-based.
Data set [14] has as its system Periplaneta americana. The experiment in a line: Insecticidal activity against adult form of Periplaneta americana (American cockroach) assessed as paralysis at 8.4 nmol injected into abdominal region measured after 1 hr. Format: functional, organism-based.
Data set [15] concerns Periplaneta americana. Description: Insecticidal activity against adult form of Periplaneta americana (American cockroach) assessed as paralysis at 8.4 nmol injected into abdominal region measured after 24 hr. Format: functional, organism-based.
The test system of data set [16] is Periplaneta americana. Description: Insecticidal activity against adult form of Periplaneta americana (American cockroach) assessed as paralysis at 8.4 nmol stored at 4 degC for 10 days injected into abdominal region measured after 3 hr. Format: functional, organism-based.
For data set [17], the system named is Periplaneta americana. The experiment in a line: Insecticidal activity against adult form of Periplaneta americana (American cockroach) assessed as paralysis at 19 nmol injected into abdominal region measured after 3 hr. Format: functional, organism-based.
The test system of a further data set is Bemisia tabaci. Description: Ratio of imidacloprid efficacy to compound efficacy for po dosed Bemisia tabaci (sweet potato whitefly). Format: functional.
Data set [18] relates to Periplaneta americana. The experiment in a line: Insecticidal activity against adult form of Periplaneta americana (American cockroach) assessed as paralysis at 19 nmol injected into abdominal region measured after 1 hr. Format: functional, organism-based.
Data set [19] relates to Periplaneta americana. The experiment in a line: Insecticidal activity against adult form of Periplaneta americana (American cockroach) assessed as paralysis at 19 nmol injected into abdominal region measured after 13 hr. Format: functional, organism-based.
In data set [20] the target is T1, Nicotinic acetylcholine receptor alpha 5 subunit (Musca domestica) (UniProt A9XFY4).
T1 sequence (whole entry): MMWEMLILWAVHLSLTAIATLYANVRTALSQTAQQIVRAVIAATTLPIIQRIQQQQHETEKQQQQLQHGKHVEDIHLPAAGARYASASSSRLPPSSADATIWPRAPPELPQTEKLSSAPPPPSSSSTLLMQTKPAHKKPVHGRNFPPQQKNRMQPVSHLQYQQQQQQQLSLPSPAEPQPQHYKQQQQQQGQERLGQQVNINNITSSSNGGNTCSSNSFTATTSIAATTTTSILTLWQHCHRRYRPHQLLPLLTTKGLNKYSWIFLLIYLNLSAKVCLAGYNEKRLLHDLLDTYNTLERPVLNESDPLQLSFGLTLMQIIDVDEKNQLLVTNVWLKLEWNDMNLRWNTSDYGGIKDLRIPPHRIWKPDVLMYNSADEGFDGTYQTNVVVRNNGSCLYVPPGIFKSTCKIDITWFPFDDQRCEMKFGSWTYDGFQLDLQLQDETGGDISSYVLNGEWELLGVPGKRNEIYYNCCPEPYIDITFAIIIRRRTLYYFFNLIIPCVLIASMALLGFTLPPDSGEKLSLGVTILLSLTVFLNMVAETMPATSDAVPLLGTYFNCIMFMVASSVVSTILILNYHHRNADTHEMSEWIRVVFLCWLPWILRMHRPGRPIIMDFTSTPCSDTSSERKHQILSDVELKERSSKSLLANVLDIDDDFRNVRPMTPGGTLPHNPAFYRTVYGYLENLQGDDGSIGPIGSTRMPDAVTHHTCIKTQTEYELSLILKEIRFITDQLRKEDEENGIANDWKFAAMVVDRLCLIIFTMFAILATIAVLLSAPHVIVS
Description: Binding affinity to nicotinic acetylcholine receptor in Musca domestica (house fly) head membrane relative to imidacloprid.

A further data set concerns Myzus persicae. Description: Ratio of imidacloprid efficacy to compound efficacy for po dosed Myzus persicae (green peach aphid). Format: functional.
In data set [21] the test system is Periplaneta americana. The experiment in a line: Insecticidal activity against adult form of Periplaneta americana (American cockroach) assessed as paralysis at 19 nmol injected into abdominal region measured after 24 hr. Format: functional, organism-based.
Data set [22] has as its system Periplaneta americana. The experiment in a line: Insecticidal activity against adult form of Periplaneta americana (American cockroach) assessed as paralysis at 19 nmol injected into abdominal region measured after 32 hr. Format: functional, organism-based.
For data set [23], the system named is Periplaneta americana. The experiment in a line: Insecticidal activity against adult form of Periplaneta americana (American cockroach) assessed as paralysis at 19 nmol injected into abdominal region measured after 2 hr. Format: functional, organism-based.
The subject of data set [24] is Periplaneta americana. The experiment in a line: Insecticidal activity against adult form of Periplaneta americana (American cockroach) assessed as paralysis at 19 nmol injected into abdominal region measured after 8 hr. Format: functional, organism-based.
In another data set the test system is Aphis gossypii. The experiment in a line: Ratio of imidacloprid efficacy to compound efficacy for po dosed Aphis gossypii (cotton aphid). Format: functional.
Data set [25] has as its system Periplaneta americana. The experiment in a line: Insecticidal activity against adult form of Periplaneta americana (American cockroach) assessed as paralysis at 1.1 nmol injected into abdominal region measured after 24 hr. Format: functional, organism-based.
Data set [26] relates to Periplaneta americana. The experiment in a line: Insecticidal activity against adult form of Periplaneta americana (American cockroach) assessed as paralysis at 1.1 nmol injected into abdominal region measured after 1 hr. Format: functional, organism-based.
The subject of data set [27] is Periplaneta americana. Description: Insecticidal activity against adult form of Periplaneta americana (American cockroach) assessed as paralysis at 1.1 nmol injected into abdominal region measured after 13 hr. Format: functional, organism-based.
Data set [28] deals with Periplaneta americana. Description: Insecticidal activity against adult form of Periplaneta americana (American cockroach) assessed as paralysis at 1.1 nmol injected into abdominal region measured after 3 hr. Format: functional, organism-based.
For data set [29], the system named is Periplaneta americana. Description: Insecticidal activity against adult form of Periplaneta americana (American cockroach) assessed as paralysis at 1.1 nmol injected into abdominal region measured after 8 hr. Format: functional, organism-based.
The test system of data set [30] is Periplaneta americana. The experiment in a line: Insecticidal activity against adult form of Periplaneta americana (American cockroach) assessed as paralysis at 1.1 nmol injected into abdominal region measured after 2 hr. Format: functional, organism-based.
Data set [31] concerns Periplaneta americana. Description: Insecticidal activity against adult form of Periplaneta americana (American cockroach) assessed as paralysis at 1.1 nmol injected into abdominal region measured after 32 hr. Format: functional, organism-based.
Data set [32] can be described thus: Half life in Apis mellifera (honey bee). Format: ADME, organism-based. To be noted: in vivo.

The source made the active and inactive calls.

On to `O=[N+]([O-])/N=C1\NC(O)C(O)N1Cc1ccc(Cl)nc1` (centres undefined) [4,5-DIHYDROXYIMIDACLOPRID], for which, in the data set on Periplaneta americana [1], the Activity is above 370 µM. The outcome in the data set on Periplaneta americana [2] was inactive. Also, the MLD with Periplaneta americana [3] was above 250 nmol.
As for `O=[N+]([O-])/N=C1\NCC(O)N1Cc1ccc(Cl)nc1` (centres undefined) [5-HYDROXYIMIDACLOPRID], the values for the Ratio in the data set on Periplaneta americana [4] and in the data set with Periplaneta americana [10] were 10 and 20, respectively. The result with Periplaneta americana [5], in the data set on Periplaneta americana [6], with Periplaneta americana [8], with Periplaneta americana [9], with Periplaneta americana [11] and in the data set on Periplaneta americana [12] was Active. For the same molecule, the result in the data set on Periplaneta americana [15] and in the data set with Periplaneta americana [16] was Active. Further, in data set [7], the logP stood at 8. Further, in the data set with Periplaneta americana [1], the Activity was determined as 150 µM. The outcome with Periplaneta americana [13] and with Periplaneta americana [14] was inactive. For the same molecule, the MLD in the data set on Periplaneta americana [3] came out at 11 nmol.
Take `O=[N+]([O-])Nc1nccn1Cc1ccc(Cl)nc1` [DEHYDROIMIDACLOPRID]: the Ratio was 10 in the data set with Periplaneta americana [4]; above 10 in the data set on Bemisia tabaci; 20 in the data set with Periplaneta americana [10]; 3 in data set [20]; above 10 in the data set with Myzus persicae; above 10 in the data set with Aphis gossypii. In addition, the outcome in the data set on Periplaneta americana [17], in the data set with Periplaneta americana [18], with Periplaneta americana [19], with Periplaneta americana [21], in the data set with Periplaneta americana [22] and with Periplaneta americana [23] was Active. The result with Periplaneta americana [24] was Active. The molecule also registered a logP in [7] of 0.45. Also, the Activity with Periplaneta americana [1] is 49 µM. For the same molecule, the MLD with Periplaneta americana [3] was found to be 19 nmol.
In the case of `O=[N+]([O-])/N=C1\NCCN1Cc1ccc(Cl)nc1` [IMIDACLOPRID], the outcome in the data set with Periplaneta americana [25], with Periplaneta americana [26], in the data set with Periplaneta americana [27], in the data set on Periplaneta americana [28], in the data set on Periplaneta americana [29] and in the data set on Periplaneta americana [30] was Active. The Activity with Periplaneta americana [1] was 2.3 µM. Further, the outcome with Periplaneta americana [31] was inactive. Besides, the MLD in the data set with Periplaneta americana [3] was 1.1 nmol.
As for `O=[N+]([O-])NC1=NCCN1Cc1ccc(Cl)nc1` [IMIDACLOPRID], the half-life in data set [32] is 4.5 h.

As usually defined, the logP is the decadic logarithm of the partition coefficient of the neutral form, usually between octanol and water. High values mean a more lipophilic compound, low ones a more hydrophilic compound. The half-life is the time needed for the level to fall by half in the phase considered. A lower half-life goes with fast loss.
